Test results published in PMC5390247, “New method for quantification of gasotransmitter hydrogen sulfide in biological matrices by LC-MS/MS” (Scientific Reports, 2017).

Tests used:
yeast CSE enzyme (CYS3) [1] = target: T1, yeast CSE enzyme (CYS3) (Saccharomyces cerevisiae, UniProt P31373); assay: H2S production by LC-MS/MS and substrate consumption; assay type: biochemical
T1 construct: full-length CYS3 gene amplified from S288C gDNA, expressed in E. coli (pTrc-CYS3), nickel column, SUMO-tag cut off
T1 sequence (P31373 2-394): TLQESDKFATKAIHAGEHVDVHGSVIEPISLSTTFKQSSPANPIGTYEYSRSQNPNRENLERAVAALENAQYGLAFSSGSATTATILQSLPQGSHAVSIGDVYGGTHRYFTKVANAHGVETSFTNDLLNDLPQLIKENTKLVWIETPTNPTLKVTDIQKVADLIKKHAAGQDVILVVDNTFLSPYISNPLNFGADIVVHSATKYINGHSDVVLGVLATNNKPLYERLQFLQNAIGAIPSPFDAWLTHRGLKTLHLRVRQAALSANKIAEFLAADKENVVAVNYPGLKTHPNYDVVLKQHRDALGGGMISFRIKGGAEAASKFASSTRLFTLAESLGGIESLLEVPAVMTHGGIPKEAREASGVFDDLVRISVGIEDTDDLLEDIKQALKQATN

yeast CSE enzyme (CYS3) [2] = target: T1, yeast CSE enzyme (CYS3); assay: H2S production from SPRC by LC-MS/MS (sulfide dibimane); assay type: biochemical; settings: 473 uM PAG; 473 uM SPRC as substrate; complete inhibition stated in words

C#CCSC[C@H](N)C(=O)O [SPRC, S-propargyl-cysteine]
H2S production by LC-MS/MS and substrate consumption (yeast CSE enzyme (CYS3) [1]; 473 uM SPRC): SPRC elimination was accomplished with increased level of hydrogen sulfide in the CYS3 mixture

N[C@@H](CCSC[C@H](N)C(=O)O)C(=O)O [CTT, L-cystathionine]
H2S production by LC-MS/MS and substrate consumption (yeast CSE enzyme (CYS3) [1]; 473 uM CTT): hydrogen sulfide production increased rapidly whereas the amount of L-cystathionine (CTT) decreased accordingly

C#CCC(N)C(=O)O (racemic) [PAG, propargylglycine]
H2S production from SPRC by LC-MS/MS (sulfide dibimane) (yeast CSE enzyme (CYS3) [2]): propargylglycine (PAG) completely inhibited the hydrogen sulfide production of CYS3 by using SPRC
